Measured values: publication PMC3814989, “Development of a Fluorescence Polarization Based High-Throughput Assay to Identify Casitas B-Lineage Lymphoma RING Domain Regulators” (PLoS ONE, 2013)
Like-named read-outs stand apart in the source and are kept apart here. Residues, ends and D or L forms follow the SMILES beside them.

Molecular target: T1, c-Cbl (RING) protein (Homo sapiens, UniProt P22681)
T1 construct: c-Cbl (RING) protein including the linker and RING domain (codon 358–457) was tagged with glutathione S-transferase (GST); GST; made in house
T1 sequence (P22681 358-457): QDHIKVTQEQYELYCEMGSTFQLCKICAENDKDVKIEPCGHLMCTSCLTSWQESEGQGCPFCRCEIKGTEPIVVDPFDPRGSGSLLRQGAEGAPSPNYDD
Experiment: Competitive FP assay/screen: displacement of probe 1 from c-Cbl (RING) protein
Assay type: binding
Conditions: for Outcome in detergent-present screen: detergent-present screen (0.01% Triton X-100); for Hit verification outcome: hits from detergent-free screen, more extensive competitive binding assays
Experimental: Assays were carried out in detergent-free buffer system (PBS, pH = 7.4) or detergent-present buffer system (0.01% Triton X-100 in PBS, pH = 7.4). All FP measurements were made on 384-well, low-volume, black, v-bottom polystyrene microplates (Corning, Shanghai, China) using the ZS-2 plate reader. The binding affinities of fluorescein-labeled peptides/regulators binding to c-Cbl (RING) protein were verified by titrating an increasing concentration of protein into a constant concentration of labeled peptides. […] The total fluorescence (TF) values were also measured. The change in polarization was graphed as a function of the log of the protein concentration, and the dissociation constant (Kd) and the change in mP (ΔmP) were obtained from the resulting sigmoidal curve. The concentrations of fluorescein-labeled peptide and proteins were optimized.
Unlabeled short peptide was titrated against the FITC-labeled peptide (100 nmol/L) and protein (3 µmol/L) mixture. Plates were incubated at room temperature for up to 3 hours or 30 min at different temperatures.
Master mixtures containing fluorescein-labeled probe and Cbl (RING) protein Cbl (RING) protein, 3 µmol/L and probe 1 at 100 nmol/L) in a reaction volume of 19 µl were prepared and loaded to plates. The library compounds (10 µmol/L – 0.078 µmol/L, half dilutions) were prepared separately and transferred into the assay plates. The first and last columns of each plate were used as positive and negative control wells. Wells containing the drug only were used as controls to detect auto-fluorescence of the compounds in the total fluorescence assay. After subtraction of the background signal, data was processed and the IC50 values were determined by non-linear least square fitting (four parameters) using SigmaPlot 11.0.
Hits were validated using the primary screening assay conditions in triplicate.

[1] = primary screen, detergent-free system, 10 to 0.078 µmol/L, 5% DMSO, read-out: IC50 Primary screen DF
[2] = primary screen, detergent-present system (0.01% Triton X-100), 10 to 0.078 µmol/L, 5% DMSO, read-out: IC50 Primary screen DP
[3] = validated in triplicate, detergent-free system, read-out: IC50 Validated DF
[4] = validated in triplicate, detergent-present system (0.01% Triton X-100), NR: no dose response, read-out: IC50 Validated DP

| IC50 [1] [µM] | IC50 [2] [µM] | IC50 [3] [µM] | IC50 [4] [µM] | Compound | Outcome in detergent-present screen | Hit verification outcome | other results |
| --- | --- | --- | --- | --- | --- | --- | --- |
| 3.5 | 3.8 | 4.6 ± 0.8 | 4.5 ± 1.1 | C[C@]1(O)C[C@@H](O)[C@@H]2C=CO[C@@H](O[C@@H]3O[C@H](CO)[C@@H](O)[C@H](O)[C@H]3O)[C@@H]21 [Leonuride] |  |  | IC50 (primary screen, detergent-free system, 10 to 0.078 µmol/L, 5% DMSO, listed as leonuride, read-out: IC50 Primary screen DF): < 5 µM |
| 4.8 | 4 | 4.2 ± 0.5 | 4 ± 0.8 | CO[C@]1(CC[C@@H](C)CO[C@@H]2O[C@H](CO)[C@@H](O)[C@H](O)[C@H]2O)O[C@H]2C[C@H]3[C@@H]4CC=C5C[C@@H](O[C@@H]6O[C@H](CO)[C@@H](O[C@@H]7O[C@@H](C)[C@H](O)[C@@H](O)[C@H]7O)[C@H](O)[C@H]6O[C@@H]6O[C@@H](C)[C@H](O)[C@@H](O)[C@H]6O)CC[C@]5(C)[C@H]4CC[C@]3(C)[C@H]2[C@@H]1C [Methylprotodioscin] |  |  |  |
|  |  |  |  | CC(=O)N1CCC[C@H]1C(=O)N[C@@H](Cc1ccccc1)C(=O)N[C@@H](CCCCN)C(=O)N1CCC[C@H]1C(=O)N1CCC[C@H]1C(N)=O [Peptide 1, Ac-PFKPP-NH2] (Ac-PFKPP-NH2) |  |  | IC50 (detergent-free system, c-Cbl (RING) protein 3 µmol/L + 100 nmol/L probe 1, read-out: IC50, unlabeled peptide competing with probe 1): 1.05 ± 0.09 µM; IC50 (detergent-present system (0.01% Triton X-100), c-Cbl (RING) protein 3 µmol/L + 100 nmol/L probe 1, read-out: IC50, unlabeled peptide competing with probe 1): 1.06 ± 0.09 µM |
|  |  |  |  | CC(=O)N1CCC[C@H]1C(=O)N[C@@H](C)C(=O)N[C@@H](CCCCN)C(=O)N1CCC[C@H]1C(=O)N1CCC[C@H]1C(N)=O [Peptide 2, Ac-PAKPP-NH2] (Ac-PAKPP-NH2) |  |  | Effect of unlabeled peptide on FP values (detergent-free system, c-Cbl (RING) protein 3 µmol/L + 100 nmol/L probe 1): does not alter the FP values |
|  |  |  |  | O=c1c(O)c(-c2ccc(O)c(O)c2)oc2cc(O)cc(O)c12 [Quercetin] | negative | false positive hits |  |
| 5 | > 10 | 4.7 ± 0.4 | > 10 | Tehmaglutin | negative | false positive hits | IC50 (primary screen, detergent-free system, 10 to 0.078 µmol/L, 5% DMSO, listed as tehmaglutin, read-out: IC50 Primary screen DF): < 5 µM |
